Results: US20260297542A1, “HERBICIDE RESISTANT PLANTS” (SYNGENTA CROP PROTECTION AG, priority 2023, published 2026)
Changes are numbered by the printed parent chain. Values joined by “and” are separate entries in the source; they are usually repeats but may differ in a detail not shown here. Equal values may be shown once.

How the values were obtained:
Wildtype Samsun tobacco = test: herbicide damage to wild-type tobacco; assay type: in vivo; settings: 120 g ai/ha, 0 no visible damage, 100 complete death
Excerpt: (§1) Herbicidal damage is visually assessed across the population and a herbicide damage score given at 7 and 14 days. A score of 0 indicates no visible damage or stunting whereas a score of 100 indicates a complete death of the plant. 20 transgenic events (i.e. individual transgenic plants) from each GM tobacco line are transplanted to soil 1 week prior to spraying with PPO inhibiting compounds. WT tobacco is included as a control.
as §1, with “damage was” for “damage is”, “line were” for “line are”
The wild-type Samsun plants show significant damage at the day 7 and 14 assessment time.

[1] = biological target: T1, AtPPO1 S305L Y361C L362F Y426M L479M (SEQ ID NO.134) (Arabidopsis thaliana, UniProt P55826, L479M/S305L/Y361C/Y362F/Y426M); test: fluorescent Protoporphyrinogen Oxidase assay, crude extract; assay type: biochemical; settings: read-out: percentage inhibition
T1 sequence (P55826 35-537 S305L/Y361C/Y362F/Y426M/L479M): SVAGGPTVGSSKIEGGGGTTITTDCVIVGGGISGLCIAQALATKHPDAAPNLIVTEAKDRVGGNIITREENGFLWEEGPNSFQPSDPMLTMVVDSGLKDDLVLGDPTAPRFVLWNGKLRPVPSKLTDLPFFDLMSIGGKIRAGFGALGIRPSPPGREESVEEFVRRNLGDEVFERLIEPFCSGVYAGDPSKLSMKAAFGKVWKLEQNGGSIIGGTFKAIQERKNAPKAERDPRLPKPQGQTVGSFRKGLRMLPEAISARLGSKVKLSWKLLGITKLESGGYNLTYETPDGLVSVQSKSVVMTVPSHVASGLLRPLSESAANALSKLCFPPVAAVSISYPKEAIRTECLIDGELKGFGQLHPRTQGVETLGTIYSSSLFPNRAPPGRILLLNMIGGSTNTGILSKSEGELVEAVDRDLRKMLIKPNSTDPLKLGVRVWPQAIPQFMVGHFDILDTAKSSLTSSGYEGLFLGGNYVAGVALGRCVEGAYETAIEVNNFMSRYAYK

[2] = biological target: T2, AtPPO1 Y426M T461Q L479M (SEQ ID NO.132) (Arabidopsis thaliana, UniProt P55826, L479M/T461Q/Y426M); test: as above; assay type: biochemical; settings: read-out: percentage inhibition
T2 construct: made in house; host or cells: E. coli BL21 (DE3) hemG, crude extract
T2 sequence (P55826 35-537 Y426M/T461Q/L479M): T1 sequence (P55826 35-537 S305L/Y361C/Y362F/Y426M/L479M) with L271S, C327Y, F328Y, T427Q

| Compound | percentage of damage (Wildtype Samsun tobacco; 7 DAT) | percentage of damage (Wildtype Samsun tobacco; 14 DAT) [%] | inhibition at 0.1 ppm [1] [%] | inhibition at 1 ppm [1] [%] | inhibition at 10 ppm [1] [%] | inhibition at 100 ppm [1] [%] | inhibition at 0.1 ppm [2] [%] | inhibition at 1 ppm [2] [%] | inhibition at 10 ppm [2] [%] | inhibition at 100 ppm [2] [%] |
| --- | --- | --- | --- | --- | --- | --- | --- | --- | --- | --- |
| CCOC(=O)C1(C)CC(c2cc(-n3c(=O)cc(C(F)(F)F)n(C)c3=O)c(F)cc2Cl)=NO1 (stereo not shown) [Herbicide C, 3-(2-chloro-4-fluoro-5-(3-methyl-2,6-dioxo-4-trifluoromethyl-3,6-dihydropyrimidin-1(2H)-yl)phenyl)-5-methyl-4,5-dihydroisoxazole-5-carboxylic acid ethyl ester] | 100% | 100 | 19 | 65 | 99 | 100 | 26 | 54 | 75 | 100 |
| C#CCN1C(=O)C(F)(F)Oc2cc(F)c(-n3c(=O)n(C)c(=S)n(C)c3=O)cc21 [Herbicide B, trifludimoxazin] | 100% | 100 | 100 | 100 | 100 | 100 | 100 | 100 | 100 | 100 |
| CCOC(=O)[C@]1(C)CC(c2cc(-n3c(=O)n(C)c(=S)n(C)c3=O)c(F)cc2Cl)=NO1 [Herbicide D, ethyl (5S)-3-[2-chloro-5-(3,5-dimethyl-2,6-dioxo-4-thioxo-1,3,5-triazinan-1-yl)-4-fluoro-phenyl]-5-methyl-4H-isoxazole-5-carboxylate] | 98% and 100% | 100 | 0 | 56 | 85 | 100 | 58 | 79 | 95 | 100 |
| CCOC(=O)COc1ncccc1Oc1cc(-n2c(=O)cc(C(F)(F)F)n(C)c2=O)c(F)cc1Cl [Herbicide A, epyrifenacil] |  |  | 0 | 40 | 83 | 92 | 10 | 51 | 77 | 100 |
| CC(C)N(C)S(=O)(=O)NC(=O)c1cc(-n2c(=O)cc(C(F)(F)F)n(C)c2=O)c(F)cc1Cl [Herbicide E, saflufenacil] |  |  | 0 | 39 | 80 | 99 | 0 | 26 | 70 | 100 |
